# Assay results as given in ChEMBL document CHEMBL1201862, “PubChem BioAssay data set” (2004).
# The source made the active and inactive calls.
# Legend:
# Phospholipase D1 = Phospholipase D1 (Homo sapiens, UniProt Q13393); assay: cellular phospholipase D1 inhibition IC50 – cell-based, dose response (AID 602151); format: functional;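 further: cellular PLD1 assay in Calu-1 cells stimulated with PMA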
# Phospholipase D2 = Phospholipase D2 (Homo sapiens, UniProt O14939); assay: cellular phospholipase D2 inhibition IC50 – cell-based, dose response (AID 602147); format: functional;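 further: cellular assay in HEK293 cells overexpressing GFP-tagged PLD2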
# Chain of Phospholipase D2 (O14939 whole entry): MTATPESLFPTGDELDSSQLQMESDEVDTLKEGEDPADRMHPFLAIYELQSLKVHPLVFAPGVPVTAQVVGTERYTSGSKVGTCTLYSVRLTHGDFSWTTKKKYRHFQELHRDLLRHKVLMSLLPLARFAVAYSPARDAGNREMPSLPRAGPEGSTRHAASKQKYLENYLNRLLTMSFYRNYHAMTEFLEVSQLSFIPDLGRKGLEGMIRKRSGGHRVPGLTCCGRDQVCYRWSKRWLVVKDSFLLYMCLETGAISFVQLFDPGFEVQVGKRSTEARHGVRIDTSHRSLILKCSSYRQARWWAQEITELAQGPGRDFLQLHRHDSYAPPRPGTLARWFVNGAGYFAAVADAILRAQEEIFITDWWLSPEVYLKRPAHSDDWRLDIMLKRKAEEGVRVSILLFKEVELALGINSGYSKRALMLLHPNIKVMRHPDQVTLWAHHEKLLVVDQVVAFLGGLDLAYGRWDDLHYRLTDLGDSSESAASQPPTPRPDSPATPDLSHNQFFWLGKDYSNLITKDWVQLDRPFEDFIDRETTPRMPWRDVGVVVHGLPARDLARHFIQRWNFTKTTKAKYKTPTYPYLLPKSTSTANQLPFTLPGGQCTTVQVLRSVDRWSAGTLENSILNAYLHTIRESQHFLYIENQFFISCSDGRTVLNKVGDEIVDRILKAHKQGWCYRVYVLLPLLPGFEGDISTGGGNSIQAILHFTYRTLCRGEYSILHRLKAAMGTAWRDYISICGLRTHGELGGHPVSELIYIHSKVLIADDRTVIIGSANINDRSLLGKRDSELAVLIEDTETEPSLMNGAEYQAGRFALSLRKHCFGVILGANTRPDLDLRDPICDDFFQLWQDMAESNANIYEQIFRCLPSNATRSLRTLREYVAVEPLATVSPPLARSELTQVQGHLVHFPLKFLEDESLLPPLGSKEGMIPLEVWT
# Large T antigen = Large T antigen (Simian virus 40, UniProt P03070); format: functional, Betapolyomavirus macacae;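 further: Confirmatory-stage PubChem screen for compounds that inhibit SV40 T antigen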
# Chain of Large T antigen (P03070 whole entry, the tested form may be a part): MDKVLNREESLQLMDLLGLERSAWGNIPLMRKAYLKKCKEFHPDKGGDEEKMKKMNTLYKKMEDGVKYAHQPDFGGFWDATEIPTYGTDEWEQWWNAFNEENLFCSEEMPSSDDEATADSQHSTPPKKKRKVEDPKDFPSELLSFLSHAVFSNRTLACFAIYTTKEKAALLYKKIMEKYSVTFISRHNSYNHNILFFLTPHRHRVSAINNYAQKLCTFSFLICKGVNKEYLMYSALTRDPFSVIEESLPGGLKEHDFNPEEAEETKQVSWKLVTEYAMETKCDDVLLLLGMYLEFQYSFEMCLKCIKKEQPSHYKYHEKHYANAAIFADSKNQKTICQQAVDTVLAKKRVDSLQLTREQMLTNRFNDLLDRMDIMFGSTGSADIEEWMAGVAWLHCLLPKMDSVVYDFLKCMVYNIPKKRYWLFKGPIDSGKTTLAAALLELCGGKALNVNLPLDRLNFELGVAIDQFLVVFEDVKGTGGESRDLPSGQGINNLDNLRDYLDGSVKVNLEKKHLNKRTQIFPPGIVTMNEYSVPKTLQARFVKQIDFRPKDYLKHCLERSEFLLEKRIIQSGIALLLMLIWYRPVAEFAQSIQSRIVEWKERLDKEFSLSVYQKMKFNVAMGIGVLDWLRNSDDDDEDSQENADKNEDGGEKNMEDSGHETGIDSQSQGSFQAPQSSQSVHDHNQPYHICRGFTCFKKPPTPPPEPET
# [1] = molecular target: Envelope glycoprotein gp160 (Human immunodeficiency virus 1, UniProt Q6QLK5); assay: cell-free HIV fusion peptide-binding blockers – biochemical, uHTS, fluorescence dequenching, […] (AID 1986)
# Chain of Envelope glycoprotein gp160 (Q6QLK5 whole entry, the tested form may be a part): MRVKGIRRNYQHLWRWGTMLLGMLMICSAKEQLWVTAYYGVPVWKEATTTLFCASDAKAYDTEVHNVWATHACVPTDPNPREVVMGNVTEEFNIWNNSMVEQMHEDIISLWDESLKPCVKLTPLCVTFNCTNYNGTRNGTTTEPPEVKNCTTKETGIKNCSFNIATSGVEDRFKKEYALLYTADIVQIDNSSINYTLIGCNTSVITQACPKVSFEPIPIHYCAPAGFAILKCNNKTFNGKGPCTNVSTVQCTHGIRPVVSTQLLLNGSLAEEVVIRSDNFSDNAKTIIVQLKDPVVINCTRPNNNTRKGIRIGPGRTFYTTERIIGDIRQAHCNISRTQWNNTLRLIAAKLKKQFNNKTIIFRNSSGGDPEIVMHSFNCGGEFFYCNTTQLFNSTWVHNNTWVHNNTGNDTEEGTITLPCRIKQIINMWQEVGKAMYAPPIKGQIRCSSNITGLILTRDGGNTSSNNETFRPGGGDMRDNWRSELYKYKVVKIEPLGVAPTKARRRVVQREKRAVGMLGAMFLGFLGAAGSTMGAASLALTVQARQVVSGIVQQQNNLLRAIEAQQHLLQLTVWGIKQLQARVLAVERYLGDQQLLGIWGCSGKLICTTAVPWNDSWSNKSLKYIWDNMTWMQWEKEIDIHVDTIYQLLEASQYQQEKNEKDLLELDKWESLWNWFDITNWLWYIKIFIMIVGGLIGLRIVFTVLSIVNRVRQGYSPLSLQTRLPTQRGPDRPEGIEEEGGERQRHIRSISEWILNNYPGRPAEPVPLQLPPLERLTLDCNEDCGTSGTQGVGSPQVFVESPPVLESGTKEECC
# [2] = molecular target: T1, RNA-binding protein pos-1 (Caenorhabditis elegans, UniProt G5EF15); assay: disruptors of C. elegans POS-1 RNA interaction – biochemical, fluorescence polarization, dose response (AID 1964);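 further: purified POS-1 fused to maltose binding protein made in E. coli; potency of compounds blocking POS-1 binding to fluorescent RNA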
# T1 sequence (G5EF15 whole entry): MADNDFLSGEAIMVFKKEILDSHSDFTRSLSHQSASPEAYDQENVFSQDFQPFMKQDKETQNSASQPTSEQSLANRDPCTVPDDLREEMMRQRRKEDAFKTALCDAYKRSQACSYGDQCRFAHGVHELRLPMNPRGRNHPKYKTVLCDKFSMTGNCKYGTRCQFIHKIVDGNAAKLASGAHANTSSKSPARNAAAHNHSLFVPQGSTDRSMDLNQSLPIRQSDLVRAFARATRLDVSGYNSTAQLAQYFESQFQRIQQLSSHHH
# NS3 = NS3 (Hepatitis C virus, UniProt A3EZJ3); assay: PubChem AID 2173; design: species or system Hepacivirus hominis
# [3] = molecular target: Intestinal-type alkaline phosphatase (Mus musculus, UniProt P24822); assay: PubChem AID 488785; format: functional
# Chain of Intestinal-type alkaline phosphatase (Mus musculus, UniProt P24822) (P24822 whole entry): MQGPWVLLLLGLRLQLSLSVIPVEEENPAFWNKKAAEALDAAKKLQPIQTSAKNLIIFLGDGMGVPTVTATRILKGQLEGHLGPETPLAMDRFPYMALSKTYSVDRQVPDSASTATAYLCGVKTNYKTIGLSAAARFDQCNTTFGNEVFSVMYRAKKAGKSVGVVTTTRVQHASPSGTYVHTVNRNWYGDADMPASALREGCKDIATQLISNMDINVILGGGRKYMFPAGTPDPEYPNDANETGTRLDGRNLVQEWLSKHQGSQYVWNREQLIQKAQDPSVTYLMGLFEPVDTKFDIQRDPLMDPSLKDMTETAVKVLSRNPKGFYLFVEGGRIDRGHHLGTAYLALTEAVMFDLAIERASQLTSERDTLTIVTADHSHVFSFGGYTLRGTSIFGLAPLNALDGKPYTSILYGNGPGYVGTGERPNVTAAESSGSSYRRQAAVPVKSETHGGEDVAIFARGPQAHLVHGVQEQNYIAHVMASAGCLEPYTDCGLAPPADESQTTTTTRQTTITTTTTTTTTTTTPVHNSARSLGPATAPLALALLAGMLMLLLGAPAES
# Genome polyprotein = Genome polyprotein (dengue virus type 2, UniProt P29990); assay: flavivirus cap methylation enzyme inhibition – biochemical, confirmation dose response, primary screen (AID 588689); format: functional
# [4] = molecular target: Beta-adrenergic receptor kinase 1 (Homo sapiens, UniProt P25098); assay: aptamer displacement from bead-bound GRK2 – biochemical, cherry pick 1, bead flow cytometry, dose response (AID 504500)
# Chain of Beta-adrenergic receptor kinase 1 (P25098 whole entry): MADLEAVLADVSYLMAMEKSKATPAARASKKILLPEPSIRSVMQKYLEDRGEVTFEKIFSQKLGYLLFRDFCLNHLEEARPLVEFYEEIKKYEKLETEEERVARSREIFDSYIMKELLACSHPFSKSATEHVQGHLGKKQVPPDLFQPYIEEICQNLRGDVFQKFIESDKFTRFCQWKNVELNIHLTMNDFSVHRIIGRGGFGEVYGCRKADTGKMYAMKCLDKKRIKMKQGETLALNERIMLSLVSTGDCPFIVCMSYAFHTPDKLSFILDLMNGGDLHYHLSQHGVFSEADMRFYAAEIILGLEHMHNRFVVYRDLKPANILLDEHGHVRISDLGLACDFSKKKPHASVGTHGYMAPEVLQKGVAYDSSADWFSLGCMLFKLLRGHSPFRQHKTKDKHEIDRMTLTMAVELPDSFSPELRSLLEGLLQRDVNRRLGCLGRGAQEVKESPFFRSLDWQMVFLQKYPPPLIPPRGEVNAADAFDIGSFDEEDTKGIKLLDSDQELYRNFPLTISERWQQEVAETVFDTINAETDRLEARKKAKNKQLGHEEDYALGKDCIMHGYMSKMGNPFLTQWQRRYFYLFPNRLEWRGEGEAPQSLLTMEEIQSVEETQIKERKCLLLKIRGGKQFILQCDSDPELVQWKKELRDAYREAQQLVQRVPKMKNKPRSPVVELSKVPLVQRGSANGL
# [5] = molecular target: T2, Alkaline phosphatase, tissue-nonspecific isozyme (Homo sapiens, UniProt P05186); assay: TNAP enzyme inhibition by screening hits, dose response, selectivity assay for mouse IAP inhibitor project, biochemical, human TNAP, uHTS hits (AID 488906); format: functional
# T2 sequence (P05186 whole entry): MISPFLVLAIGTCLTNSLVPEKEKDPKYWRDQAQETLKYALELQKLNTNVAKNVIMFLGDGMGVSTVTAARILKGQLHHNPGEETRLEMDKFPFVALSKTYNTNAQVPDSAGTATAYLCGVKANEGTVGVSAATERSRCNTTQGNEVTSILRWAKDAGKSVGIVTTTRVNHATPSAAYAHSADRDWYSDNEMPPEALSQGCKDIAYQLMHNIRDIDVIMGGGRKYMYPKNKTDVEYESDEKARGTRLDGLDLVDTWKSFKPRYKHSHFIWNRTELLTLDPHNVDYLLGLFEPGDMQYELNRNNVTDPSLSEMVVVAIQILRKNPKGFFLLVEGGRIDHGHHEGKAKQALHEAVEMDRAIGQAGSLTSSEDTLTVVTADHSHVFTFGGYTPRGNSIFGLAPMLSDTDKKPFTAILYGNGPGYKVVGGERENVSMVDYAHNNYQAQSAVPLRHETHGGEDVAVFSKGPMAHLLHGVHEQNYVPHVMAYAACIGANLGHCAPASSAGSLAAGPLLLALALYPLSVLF
# [6] = molecular target: Intestinal-type alkaline phosphatase (Homo sapiens, UniProt P09923); assay: inhibition of human intestinal alkaline phosphatase – biochemical, dose response (AID 488876); format: functional
# [7] = molecular target: Voltage-gated inwardly rectifying potassium channel KCNH2 (Homo sapiens, UniProt Q12809); settings: Potency;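 further: confirmatory quantitative high-throughput screen measuring inhibition of hERG channel activity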
# [8] = system: Streptococcus sp. 'group A'; assay: Streptococcus pyogenes SK(-)GAS viability under kanamycin – luminescence, BacTiterGlo, confirmation, counter-screen for streptokinase expression inhibitor project, dose response (AID 1900); format: functional, organism-based
# [9] = molecular target: Dual specificity tyrosine-phosphorylation-regulated kinase 1A (Rattus norvegicus, UniProt Q63470); format: biochemical, Homo sapiens
# Streptococcus = assay: GAS UMAA2166 growth inhibition – luminescence, BacTiterGlo, counter-screen for streptokinase expression inhibitor project, dose response (AID 1915); format: functional, organism-based;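 further: potency for reduction of bacterial viability or growth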
# Streptokinase A = molecular target: T3, Streptokinase A (Streptococcus pyogenes serotype M1, UniProt P10520); assay: viability-normalized secreted streptokinase activity reduction – plasminogen activation absorbance, OD405, dose response (AID 1914); format: functional, Streptococcus pyogenes M1 GAS;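 further: secreted streptokinase activity via plasminogen activation per viability signal from cell pellet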
# T3 sequence (P10520 whole entry): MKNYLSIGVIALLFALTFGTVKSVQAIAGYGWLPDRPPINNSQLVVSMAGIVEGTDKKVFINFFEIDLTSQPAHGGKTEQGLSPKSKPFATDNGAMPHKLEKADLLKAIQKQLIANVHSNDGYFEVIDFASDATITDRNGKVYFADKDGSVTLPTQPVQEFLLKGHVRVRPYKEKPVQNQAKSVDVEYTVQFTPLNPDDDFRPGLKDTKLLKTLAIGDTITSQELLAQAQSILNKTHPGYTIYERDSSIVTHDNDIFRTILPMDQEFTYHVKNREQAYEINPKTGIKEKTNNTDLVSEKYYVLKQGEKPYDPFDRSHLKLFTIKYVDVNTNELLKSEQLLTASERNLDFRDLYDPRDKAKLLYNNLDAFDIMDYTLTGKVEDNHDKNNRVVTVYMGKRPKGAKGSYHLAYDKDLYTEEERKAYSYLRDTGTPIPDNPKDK
# A-375 = assay: proliferation inhibition in MITF-low A375 cells – cell-based, cherry-pick samples, set 2, counter-screen for MITF modulator project, dose response (AID 540335); format: functional; settings: Homo sapiens
# Nonstructural protein 1 = Nonstructural protein 1 (Influenza A virus, UniProt Q194T2); format: functional, Influenza A virus (A/California/07/2009(H1N1))
# Chain of Nonstructural protein 1 (Q194T2 whole entry): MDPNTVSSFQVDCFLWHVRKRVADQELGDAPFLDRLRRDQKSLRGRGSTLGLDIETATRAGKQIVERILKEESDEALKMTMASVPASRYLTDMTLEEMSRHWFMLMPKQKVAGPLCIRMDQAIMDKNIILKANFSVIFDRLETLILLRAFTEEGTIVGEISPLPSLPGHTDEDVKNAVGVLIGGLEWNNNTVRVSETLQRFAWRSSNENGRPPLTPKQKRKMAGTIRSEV
# [10] = molecular target: T4, DNA repair protein RAD52 homolog (Homo sapiens, UniProt P43351); format: functional, biochemical
# T4 sequence (P43351 whole entry): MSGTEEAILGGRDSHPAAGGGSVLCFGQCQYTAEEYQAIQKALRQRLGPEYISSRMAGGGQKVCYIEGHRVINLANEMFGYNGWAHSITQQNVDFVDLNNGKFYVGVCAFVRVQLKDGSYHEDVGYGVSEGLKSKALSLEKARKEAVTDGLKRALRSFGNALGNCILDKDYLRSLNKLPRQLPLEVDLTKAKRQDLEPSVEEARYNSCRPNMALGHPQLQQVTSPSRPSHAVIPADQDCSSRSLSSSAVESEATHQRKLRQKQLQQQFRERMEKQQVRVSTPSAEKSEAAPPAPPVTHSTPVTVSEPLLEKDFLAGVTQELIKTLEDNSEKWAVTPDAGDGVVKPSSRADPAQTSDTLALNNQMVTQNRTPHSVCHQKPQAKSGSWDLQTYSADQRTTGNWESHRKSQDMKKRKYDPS
# [11] = viability of HCT116 lacking mutant beta-catenin – cell-based, human colon tumor, dose response (AID 1045); format: functional;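 further: HCT116 colon tumor cells with beta catenin knocked out; cells exposed to compound for 60 hours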
# cells = format: functional
# [12] = viability of PTEN-deleted HCT116 cells – cell-based, HCT116 PTEN knockout, dose response (AID 1047); format: functional;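 further: HCT116 colon tumor cells with PTEN knocked out; cells exposed to compound for 60 hours before readout; potency for loss of cell viability measured by luminescence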
# [13] = Luminescence Cell-Based Dose Retest to Confirm Inhibitors of Cancer Stem Cells. [Related pubchem assays (depositor defined):AID2717, AID2721]; format: functional, Homo sapiens; settings: Homo sapiens
# [14] = microbe, parasite or virus in culture; format: functional; settings: Mycobacterium tuberculosis
# [15] = Vero E6 cell cytotoxicity, dose response, cytotoxicity control for non-replicating M. tuberculosis project, secondary assay (AID 492998); format: functional, VeroE6; settings: Vero C1008
# [16] = molecular target: T5, Microphthalmia-associated transcription factor (Homo sapiens, UniProt O75030); assay: reducers of TRPM1 reporter luminescence, concentration series – cell-based, SK-MEL-5, cherry-picked, set 3, MITF inhibitor project, dose response (AID 493073); format: functional;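 further: SK-MEL-5 melanoma cells with luciferase driven by the MITF target TRPM1 promoter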
# T5 sequence (O75030 whole entry): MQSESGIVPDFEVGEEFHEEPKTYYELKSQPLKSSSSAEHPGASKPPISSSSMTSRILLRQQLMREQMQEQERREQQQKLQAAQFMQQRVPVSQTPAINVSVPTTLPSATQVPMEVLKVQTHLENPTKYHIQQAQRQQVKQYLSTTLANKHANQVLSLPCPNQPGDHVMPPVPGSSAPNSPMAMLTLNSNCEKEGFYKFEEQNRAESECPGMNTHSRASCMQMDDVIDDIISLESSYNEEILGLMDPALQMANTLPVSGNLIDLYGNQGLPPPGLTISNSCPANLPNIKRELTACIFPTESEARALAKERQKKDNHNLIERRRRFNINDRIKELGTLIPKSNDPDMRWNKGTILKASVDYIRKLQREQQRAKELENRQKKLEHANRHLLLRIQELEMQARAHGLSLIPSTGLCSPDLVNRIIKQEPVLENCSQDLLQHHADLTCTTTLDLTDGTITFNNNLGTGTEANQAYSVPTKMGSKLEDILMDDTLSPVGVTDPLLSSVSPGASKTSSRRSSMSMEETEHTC
# [17] = THP-1 cell cytotoxicity, dose response, cytotoxicity control for non-replicating M. tuberculosis project (AID 489025); format: functional
# [18] = HepG2 cell cytotoxicity, dose response, cytotoxicity control for non-replicating M. tuberculosis project (AID 489018); format: functional; settings: Mycobacterium tuberculosis
# [19] = molecular target: T6, Endoribonuclease toxin MazF (Escherichia coli K-12, UniProt P0AE70); assay: activation of MazEF endoribonuclease cleavage – biochemical, fluorescence, single-stranded RNA substrate, uHTS hits, dose response (AID 588481); format: functional
# T6 sequence (P0AE70 whole entry, the tested form may be a part): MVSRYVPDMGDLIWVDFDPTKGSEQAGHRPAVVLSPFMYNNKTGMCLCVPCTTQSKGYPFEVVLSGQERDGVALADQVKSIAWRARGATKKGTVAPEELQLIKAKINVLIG
# [20] = molecular target: T7, Sentrin-specific protease 1 (Homo sapiens, UniProt Q9P0U3); assay: SENP1 catalytic domain blockers, concentration series – biochemical, kinetic FRET, dose response (AID 651697); format: functional; settings: read-out: IC50_Mean
# T7 sequence (Q9P0U3 whole entry, the tested form may be a part): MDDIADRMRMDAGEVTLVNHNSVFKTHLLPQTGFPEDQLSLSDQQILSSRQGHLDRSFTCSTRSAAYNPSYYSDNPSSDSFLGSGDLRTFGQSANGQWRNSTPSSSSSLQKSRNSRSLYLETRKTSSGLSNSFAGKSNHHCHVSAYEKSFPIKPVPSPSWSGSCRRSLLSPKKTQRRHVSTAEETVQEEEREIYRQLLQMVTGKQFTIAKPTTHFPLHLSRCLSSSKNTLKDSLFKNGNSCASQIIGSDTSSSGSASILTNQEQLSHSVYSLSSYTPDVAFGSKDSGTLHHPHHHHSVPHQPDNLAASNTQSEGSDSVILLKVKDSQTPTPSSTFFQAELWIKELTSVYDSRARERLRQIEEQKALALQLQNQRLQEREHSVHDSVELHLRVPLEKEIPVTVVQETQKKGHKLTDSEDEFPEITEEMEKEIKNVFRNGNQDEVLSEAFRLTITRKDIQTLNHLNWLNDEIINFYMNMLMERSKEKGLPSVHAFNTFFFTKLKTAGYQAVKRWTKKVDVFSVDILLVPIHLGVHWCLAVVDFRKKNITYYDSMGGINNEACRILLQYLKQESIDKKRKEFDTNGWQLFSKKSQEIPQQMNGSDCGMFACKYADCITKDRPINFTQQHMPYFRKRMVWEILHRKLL
# [21] = molecular target: T7, Sentrin-specific protease 1; assay: Dose response confirmation of small molecule inhibitors of the catalytic domain of the SUMO protease, SENP1 in a FRET assay.; format: functional; settings: read-out: IC50_Mean
# [22] = molecular target: T6, Endoribonuclease toxin MazF; assay: substrate-only fluorescence increase artefacts – biochemical, single-stranded RNase substrate, counter-screen for MazEF activator project, dose response (AID 588502); format: functional
# HeLa = assay: ATP-based viability loss in HeLa cells – cell-based, CellTiter-Glo luminescence, cherry-pick samples, cytotoxicity control for MITF activator project, dose response (AID 540259); format: functional; settings: Homo sapiens
smiles,measurement,setting,value
O=C(NCCN1CCC(C(=O)NCCc2ccccn2)CC1)c1ccc2ccccc2c1,IC50,Phospholipase D1,20 µM (active)
same,IC50,Phospholipase D2,4.2 µM (active)
COc1ccc(N2C(=O)/C(=C/c3ccco3)C(=O)NC2=S)cc1,IC50,Large T antigen,10.8 µM (active)
same,IC50,[1],22.3 µM (active)
same,EC50,[2],5.3 µM (active)
same,IC50,NS3,4.61 µM (active)
same,IC50,[3],16.2 µM (active)
same,IC50,Genome polyprotein,> 100 µM (active)
same,EC50,[4],7.83 µM (active)
same,IC50,[5],32.4 µM (active)
same,IC50,[6],46 µM (active)
Brc1cc(Br)c(Oc2cc(Br)c(Br)cc2Br)cc1Br,AC50,[7],17.8 µM (inconclusive)
CC1CCc2c(C(=O)Nc3cccc(-c4nn[nH]n4)c3)csc2C1 (stereo not drawn),EC50,[8],127 µM (active)
same,AC50,[9],8.35 µM (active)
same,EC50,Streptococcus,> 150 µM (not active)
same,EC50,Streptokinase A,27.3 µM (active)
CCN(Cc1ccccc1)c1ccc(/C=N/N=C(N)N)cc1,AC50,A-375,18.4 µM (active)
same,IC50,Nonstructural protein 1,39.3 µM (active)
same,AC50,[10],6.26 µM (active)
same,EC50,[11],3.35 µM (active)
same,IC50,cells,10.9 µM (active)
same,EC50,[12],3.27 µM (active)
same,AC50,[13],2.61 µM (active)
same,CC50,[14],9.2 µM (active)
same,CC50,[15],8.36 µM (active)
same,AC50,[16],6.37 µM (active)
same,CC50,[17],7.49 µM (active)
same,CC50,[18],7.93 µM (active)
O=C(CCN1C(=O)/C(=C/c2cccs2)SC1=S)NNC(=O)c1cccc(O)c1,EC50,[19],> 99 µM (inactive)
same,IC50,[20],16.2 µM (active)
same,IC50,[21],21.9 µM (inactive)
same,EC50,[22],> 99 µM (inactive)
COC(=O)c1ccc(/C=N/Nc2nc(C)c(C)s2)cc1,AC50,HeLa,69.8 µM (active)
